From PubChem BioAssay (NCI) come the findings set out here.

Holding throughout (assay): inhibition of tumour cell growth, NCI panel, 48 h
Assay [1] concerns SK-OV-3 ovarian.
Assay [2] concerns HOP-92 NSCLC.
The test system of assay [3] is HCT-15 colon.
Assay [4] has as its system NCI-H226 lung.
The test system of assay [5] is CAKI-1 renal.
Assay [6] concerns SR leukemia.
Assay [7] has as its system SNB-19 CNS.
Assay [8] has as its system HS 578T breast.
Assay [9] deals with RXF 393 renal.
Assay [10] has as its system OVCAR-4 ovarian.

Several values for one entry are separate records, joined by “and”; a condition that tells them apart may be missing. Equal entries are not always repeated.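 Dose response: 5 concentrations. Exposure: 48 h. Format: 96-well plates. Endpoint: linear interpolation; highest concentration if not reached. GI50 marks 50% less growth. Definition used: TGI = concentration required for complete inhibition of growth.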

`COC(=O)c1c[nH]c2cc(OC(C)C)c(OC(C)C)cc2c1=O`: the GI50 in assay [1], in [2], in [3], in [4], in [5] and in [6] was more than 100 µM in each case. The GI50 in assay [7], in assay [8] and in assay [9] was more than 100 µM throughout. Besides, the TGI in [1], in [2], in assay [3], in [4], in [5] and in assay [6] was more than 100 µM throughout. Moreover, the TGI in [7], in assay [8] and in assay [9] was more than 100 µM each time.
`O=C(Nc1ccncc1)C(=O)c1cn(S(=O)(=O)c2cccc(Cl)c2)c2ccccc12`: the GI50 in assay [1] was 30.2 µM; in assay [2], 3.31 µM; in assay [10], 7.51 µM; in [3], 3.24 µM; in assay [4], 13.6 µM; in assay [5], 3.38 µM. Also, the GI50 in assay [7] is 27.5 µM; in assay [8], 77.1 µM; in [9], 4.34 µM. Besides, the TGI is more than 100 µM in [1]; 23.1 µM in [2]; more than 100 µM in [10]; more than 100 µM in assay [3]; more than 100 µM in assay [4]; 39.9 µM in assay [5]. Also, the figures for the TGI in assay [7], in assay [8] and in assay [9] were more than 100 µM, more than 100 µM and 21.2 µM, respectively.
For the molecule `CN(C)c1ccc(/C=C(\C#N)c2cc3ccccc3[nH]2)cc1`, the GI50 in assay [1] is 2.28 µM; in [2], 1.42 µM; in assay [10], 3.75 µM; in [3] it was 0.509 µM; in [5] it was 1.6 µM; in assay [6], 0.497 µM. In addition, the GI50 in [7] was 2.23 µM; in assay [8] it was 1.63 µM. The TGI in assay [1] was more than 100 µM; in [2], 5.53 µM; in [10], more than 100 µM; in assay [3] it was more than 100 µM; in [5], more than 100 µM; in assay [6], more than 100 µM. The TGI in [7] was more than 100 µM; in [8], 9.49 µM.
Turning to `COc1cccc2c1C(=O)c1c(O)c3c(c(O)c1C2=O)C[C@@](O)(C(=O)CO)CC3OC1CC(N)C(OC2CCCCO2)C(C)O1` (some centres not stated), the GI50 was 0.0465 µM in [1]; 1.46 µM in assay [10]; 0.034 µM in [3]; 0.523 µM in [5]; less than 0.001 µM in assay [6]; 0.033 µM in assay [7]. Further, the GI50 in assay [9] was 0.12 µM. In addition, the TGI in assay [1] was 2.09 µM and 12 µM; in [2] it was 0.537 µM; in [3], 2.36 µM and 13.3 µM; in assay [5], 5.38 µM and 2.76 µM; in assay [7] it was 2.54 µM and 3.06 µM; in [8] it was 1.11 µM.
As for `CC1(C)C(N2CCOCC2)CS1(=O)=O` (configuration not stated), the TGI in assay [1], in assay [2], in [10], in assay [3], in [4] and in assay [5] was more than 10 µM in each case. Moreover, the TGI in [7], in assay [8] and in assay [9] was more than 10 µM each time.
As for `COc1cc(C(=O)/C=C/c2cc(-c3ccc4c(c3)OCO4)n[nH]2)cc(OC)c1OC`, the GI50 is 4.44 µM in assay [1]; 0.885 µM in [10]; 1.95 µM in [3]; 1.52 µM in assay [4]; 1.99 µM in assay [5]; 1.2 µM in assay [6]. For the same molecule, the results for the GI50 in assay [7], in assay [8] and in [9] were 2.34 µM, 3.14 µM and 1.31 µM, respectively. The TGI is 14.6 µM in [1]; 4.24 µM in assay [10]; 6.75 µM in assay [3]; 4.25 µM in assay [4]; 5.65 µM in assay [5]; 5.63 µM in [6]. Besides, the TGI in assay [7] was found to be 11.7 µM; in [8] it was 20.5 µM; in assay [9] it was 2.94 µM.
As for `CC(=Nc1ccc(N(C)C)cc1)c1ccccc1`, the TGI in [1] is more than 100 µM; in assay [10] it was 40.8 µM; in assay [3] it was 37.9 µM; in assay [4], more than 100 µM; in [5], 34 µM; in assay [6], 49.9 µM. Besides, the TGI in assay [7] is more than 100 µM; in assay [8], 65.1 µM; in [9], 20.6 µM.
With `COc1cc(-c2nn(-c3ccc(NC(=O)Nc4cc(C(F)(F)F)cc(C(F)(F)F)c4)cc3)cc2-c2ccncc2)ccc1Cl`, the GI50 is 1.55 µM in assay [1]; 1.07 µM in assay [2]; 2.78 µM in [10]; 1.58 µM in [3]; 1.92 µM in assay [4]; 1.97 µM in [5]. In addition, the GI50 in assay [7] was 1.8 µM; in assay [8], 2.94 µM; in [9] it was 1.61 µM. Moreover, the TGI in assay [1] turned out to be 3.09 µM; in assay [2], 4.32 µM; in assay [10], 9.43 µM; in assay [3] it was 4.01 µM; in assay [4], 4.84 µM; in assay [5] it was 6.73 µM. Further, the figures for the TGI in assay [7], in [8] and in [9] were 3.88 µM, more than 100 µM and 3.58 µM, respectively.
For `Cn1ncc(C#N)c1-c1ccc2c(c1)CN([C@H](CN)Cc1cccc(F)c1)C2=O`, the GI50 was 0.255 µM in assay [1]; 0.134 µM in assay [2]; 23.1 µM in assay [10]; 15.9 µM in assay [3]; 13.6 µM in assay [4]; 17.2 µM in [6]. Besides, the results for the GI50 in assay [7], in [8] and in assay [9] were 1.15 µM, 0.322 µM and 0.172 µM, respectively. Also, the TGI is 13.2 µM in [1]; 1.67 µM in assay [2]; more than 100 µM in assay [10]; more than 100 µM in [3]; 65.3 µM in assay [4]; 50.7 µM in assay [6]. Besides, the TGI in assay [7] was more than 55.3 µM; in assay [8], 11.4 µM; in [9], 2.43 µM.
As to `COc1cc(OCc2ccccc2)c2c(CCC(=O)O)cc(=O)oc2c1` (tested in a mixture with another compound), the TGI in [1], in assay [2], in [10], in [3], in [4] and in assay [5] was more than 100 µM each time. The TGI in [6], in [7] and in assay [8] was more than 100 µM each time.
With `COc1ccc(OC)c(Nc2nc3nonc3nc2Nc2cccc(Br)c2)c1`, the GI50 in assay [1] was 0.486 µM; in assay [2], 0.266 µM; in [10], 0.867 µM; in assay [3], 0.756 µM; in assay [4] it was 0.588 µM; in assay [5], 0.811 µM. The GI50 in assay [6] is 2.36 µM; in assay [7] it was 0.692 µM; in assay [8], 0.807 µM. The TGI in assay [1] is 4.1 µM; in assay [2], 3.55 µM; in [10], more than 100 µM; in assay [3], more than 100 µM; in [4] it was 40.2 µM; in assay [5], 15.2 µM. For the same molecule, the TGI in assay [6] was found to be 10.9 µM; in [7], 19.1 µM; in [8] it was 8.14 µM.
Consider `Brc1ccccc2cc(-c3ccccc3)nc1-2`, for which the TGI in [1] was 37.8 µM; in assay [2], 19.8 µM; in [10], 19.8 µM; in [3] it was 17.1 µM; in assay [4], 37.7 µM; in [5], 44.7 µM. Also, the results for the TGI in assay [7], in [8] and in [9] were 40.7 µM, more than 100 µM and 16.7 µM, respectively.
As for `O=S1(=O)c2ccccc2N(c2ccccc2)c2nnnn21`, the TGI in [1] was more than 100 µM; in [2], 88.7 µM; in assay [10] it was 70.4 µM; in [3], 37.8 µM; in assay [4], more than 100 µM; in assay [5], 36.9 µM. Further, the TGI in [7] was 88.5 µM; in assay [8] it was more than 100 µM; in assay [9], 49.5 µM.
Consider `CCN(CC)CCNC(=O)c1cccc2c1-c1ccccc1C2=O`, for which the GI50 in assay [1], in [2], in assay [10], in [3], in assay [4] and in assay [5] was more than 100 µM each time. Further, the GI50 in [7], in [8] and in assay [9] was more than 100 µM throughout. Besides, the TGI in [1], in assay [2], in assay [10], in assay [3], in assay [4] and in assay [5] was more than 100 µM in each case. The TGI in assay [7], in assay [8] and in assay [9] was more than 100 µM in each case.
Regarding `COc1ccc(Cn2cc(COc3cc(/C=C/C(=O)c4cc(OC)c(OC)c(OC)c4)ccc3OC)nn2)cc1`, the GI50 was 3.02 µM in [1]; 7.04 µM in [10]; 2.76 µM in assay [3]; 2.91 µM in [4]; 5.68 µM in assay [5]; 2.7 µM in [6]. The results for the GI50 in [7], in assay [8] and in assay [9] were 5.99 µM, 7.88 µM and 2.29 µM, respectively. Moreover, the TGI in [1] was 9.18 µM; in assay [10] it was more than 100 µM; in assay [3] it was more than 100 µM; in assay [4] it was 83.1 µM; in [5] it was more than 100 µM; in assay [6], more than 100 µM. For the same molecule, the TGI in assay [7] was more than 100 µM; in [8], more than 100 µM; in assay [9] it was 6.88 µM.
With `Nc1ccccc1C#C/C=C\C#Cc1ccccc1C#CCO`, the GI50 in [1] is 12.1 µM; in [2], 11.9 µM; in [10], 14 µM; in assay [3], 4.92 µM; in [5], 4.1 µM; in assay [6] it was 0.405 µM. Moreover, the GI50 in [7] is 23.9 µM; in assay [8], 8.89 µM; in [9], 9.25 µM. Further, the TGI in assay [1] is 27 µM; in assay [2], more than 50 µM; in [10] it was 41.4 µM; in [3], 18.3 µM; in assay [5], 18 µM; in assay [6], more than 50 µM. Moreover, the TGI is more than 50 µM in [7], 27.8 µM in assay [8] and 32.1 µM in assay [9].
Consider `c1ccc(-c2[nH]ncc2-c2ccnc(-c3ccc(OCCN4CCOCC4)cc3)c2)nc1`, for which the GI50 in assay [1], in [2], in assay [10], in [3], in assay [4] and in assay [5] was more than 25 µM throughout. Also, the GI50 in assay [7], in assay [8] and in assay [9] was more than 25 µM each time. In addition, the TGI in [1], in assay [2], in assay [10], in [3], in assay [4] and in [5] was more than 25 µM in each case. Also, the TGI in [7], in assay [8] and in assay [9] was more than 25 µM throughout.
`C=C1C(=O)O[C@H]2[C@H]1CC/C(COC(=O)c1cccnc1N)=C\CC[C@@]1(C)O[C@@H]21`: the GI50 in assay [1] was 12.2 µM; in assay [2], 0.282 µM; in [10] it was 2.08 µM; in [3], 2.34 µM; in assay [4], 10.1 µM; in assay [6] it was 0.539 µM. Besides, the GI50 in assay [7] was 8.65 µM; in assay [8], 4.15 µM; in assay [9] it was 1.53 µM. Besides, the TGI in assay [1] amounted to 73 µM; in assay [2], 2.63 µM; in [10], 19.4 µM; in assay [3], 9.79 µM; in [4] it was 24.4 µM; in assay [6] it was 10.4 µM. In addition, the TGI came to 28.5 µM in [7], 65.1 µM in assay [8] and 3.78 µM in [9].
